For 35 molecules, IC50 results are on record in patent US11230549B2, “Quinolino-pyrrolidin-2-one derivative and application thereof” (MEDSHINE DISCOVERY INC., priority 2018, dated 2022).

Assay [1] addresses T1, Human-derived DNA-PK kinase (Homo sapiens, UniProt P78527).
T1 construct: Eurofins (contract laboratory that ran the test)
Description: DNA-PK enzyme activity test (HTRF, phosphorylation of GST-cMyc-p53). It is filed as biochemical. The protocol:
(§1) The compounds of the present disclosure used for experiments are all prepared in-house, and their chemical names and structural formulas are shown in the preparation examples of each compound. The experimental tests were carried out by a UK company Eurofins, and the experimental results were provided by the company. The following experimental processes were also provided by the company.
(§2) Human-derived DNA-PK kinase was incubated in a buffer solution containing 50 nM of GST-cMyc-p53 and Mg/ATP. The concentration of Mg/ATP was determined according to different needs. The reaction was initiated by adding a Mg/ATP complex. After incubating for about 30 minutes at room temperature, a stop solution containing EDTA was added to stop the reaction. Finally, for phosphorylated p53, a detection buffer containing a d2-labeled anti-GST monoclonal antibody and an europium-labeled phosphorylated Ser15 antibody was added. Then time-resolved fluorescence mode was used to read a detection disk, and a homogeneous time-resolved fluorescence (HTRF) signal was obtained by calculating formula HTRF=10000×(Em665 nm/Em620 nm).
On the technique in general: Time-resolved FRET reads energy transfer from a long-lived donor to a nearby acceptor.

The target of the next assay is T2, Human-derived ATM kinase (Homo sapiens, UniProt Q13315).
T2 construct: Eurofins (contract laboratory that ran the test)
T2 sequence (Q13315 whole entry): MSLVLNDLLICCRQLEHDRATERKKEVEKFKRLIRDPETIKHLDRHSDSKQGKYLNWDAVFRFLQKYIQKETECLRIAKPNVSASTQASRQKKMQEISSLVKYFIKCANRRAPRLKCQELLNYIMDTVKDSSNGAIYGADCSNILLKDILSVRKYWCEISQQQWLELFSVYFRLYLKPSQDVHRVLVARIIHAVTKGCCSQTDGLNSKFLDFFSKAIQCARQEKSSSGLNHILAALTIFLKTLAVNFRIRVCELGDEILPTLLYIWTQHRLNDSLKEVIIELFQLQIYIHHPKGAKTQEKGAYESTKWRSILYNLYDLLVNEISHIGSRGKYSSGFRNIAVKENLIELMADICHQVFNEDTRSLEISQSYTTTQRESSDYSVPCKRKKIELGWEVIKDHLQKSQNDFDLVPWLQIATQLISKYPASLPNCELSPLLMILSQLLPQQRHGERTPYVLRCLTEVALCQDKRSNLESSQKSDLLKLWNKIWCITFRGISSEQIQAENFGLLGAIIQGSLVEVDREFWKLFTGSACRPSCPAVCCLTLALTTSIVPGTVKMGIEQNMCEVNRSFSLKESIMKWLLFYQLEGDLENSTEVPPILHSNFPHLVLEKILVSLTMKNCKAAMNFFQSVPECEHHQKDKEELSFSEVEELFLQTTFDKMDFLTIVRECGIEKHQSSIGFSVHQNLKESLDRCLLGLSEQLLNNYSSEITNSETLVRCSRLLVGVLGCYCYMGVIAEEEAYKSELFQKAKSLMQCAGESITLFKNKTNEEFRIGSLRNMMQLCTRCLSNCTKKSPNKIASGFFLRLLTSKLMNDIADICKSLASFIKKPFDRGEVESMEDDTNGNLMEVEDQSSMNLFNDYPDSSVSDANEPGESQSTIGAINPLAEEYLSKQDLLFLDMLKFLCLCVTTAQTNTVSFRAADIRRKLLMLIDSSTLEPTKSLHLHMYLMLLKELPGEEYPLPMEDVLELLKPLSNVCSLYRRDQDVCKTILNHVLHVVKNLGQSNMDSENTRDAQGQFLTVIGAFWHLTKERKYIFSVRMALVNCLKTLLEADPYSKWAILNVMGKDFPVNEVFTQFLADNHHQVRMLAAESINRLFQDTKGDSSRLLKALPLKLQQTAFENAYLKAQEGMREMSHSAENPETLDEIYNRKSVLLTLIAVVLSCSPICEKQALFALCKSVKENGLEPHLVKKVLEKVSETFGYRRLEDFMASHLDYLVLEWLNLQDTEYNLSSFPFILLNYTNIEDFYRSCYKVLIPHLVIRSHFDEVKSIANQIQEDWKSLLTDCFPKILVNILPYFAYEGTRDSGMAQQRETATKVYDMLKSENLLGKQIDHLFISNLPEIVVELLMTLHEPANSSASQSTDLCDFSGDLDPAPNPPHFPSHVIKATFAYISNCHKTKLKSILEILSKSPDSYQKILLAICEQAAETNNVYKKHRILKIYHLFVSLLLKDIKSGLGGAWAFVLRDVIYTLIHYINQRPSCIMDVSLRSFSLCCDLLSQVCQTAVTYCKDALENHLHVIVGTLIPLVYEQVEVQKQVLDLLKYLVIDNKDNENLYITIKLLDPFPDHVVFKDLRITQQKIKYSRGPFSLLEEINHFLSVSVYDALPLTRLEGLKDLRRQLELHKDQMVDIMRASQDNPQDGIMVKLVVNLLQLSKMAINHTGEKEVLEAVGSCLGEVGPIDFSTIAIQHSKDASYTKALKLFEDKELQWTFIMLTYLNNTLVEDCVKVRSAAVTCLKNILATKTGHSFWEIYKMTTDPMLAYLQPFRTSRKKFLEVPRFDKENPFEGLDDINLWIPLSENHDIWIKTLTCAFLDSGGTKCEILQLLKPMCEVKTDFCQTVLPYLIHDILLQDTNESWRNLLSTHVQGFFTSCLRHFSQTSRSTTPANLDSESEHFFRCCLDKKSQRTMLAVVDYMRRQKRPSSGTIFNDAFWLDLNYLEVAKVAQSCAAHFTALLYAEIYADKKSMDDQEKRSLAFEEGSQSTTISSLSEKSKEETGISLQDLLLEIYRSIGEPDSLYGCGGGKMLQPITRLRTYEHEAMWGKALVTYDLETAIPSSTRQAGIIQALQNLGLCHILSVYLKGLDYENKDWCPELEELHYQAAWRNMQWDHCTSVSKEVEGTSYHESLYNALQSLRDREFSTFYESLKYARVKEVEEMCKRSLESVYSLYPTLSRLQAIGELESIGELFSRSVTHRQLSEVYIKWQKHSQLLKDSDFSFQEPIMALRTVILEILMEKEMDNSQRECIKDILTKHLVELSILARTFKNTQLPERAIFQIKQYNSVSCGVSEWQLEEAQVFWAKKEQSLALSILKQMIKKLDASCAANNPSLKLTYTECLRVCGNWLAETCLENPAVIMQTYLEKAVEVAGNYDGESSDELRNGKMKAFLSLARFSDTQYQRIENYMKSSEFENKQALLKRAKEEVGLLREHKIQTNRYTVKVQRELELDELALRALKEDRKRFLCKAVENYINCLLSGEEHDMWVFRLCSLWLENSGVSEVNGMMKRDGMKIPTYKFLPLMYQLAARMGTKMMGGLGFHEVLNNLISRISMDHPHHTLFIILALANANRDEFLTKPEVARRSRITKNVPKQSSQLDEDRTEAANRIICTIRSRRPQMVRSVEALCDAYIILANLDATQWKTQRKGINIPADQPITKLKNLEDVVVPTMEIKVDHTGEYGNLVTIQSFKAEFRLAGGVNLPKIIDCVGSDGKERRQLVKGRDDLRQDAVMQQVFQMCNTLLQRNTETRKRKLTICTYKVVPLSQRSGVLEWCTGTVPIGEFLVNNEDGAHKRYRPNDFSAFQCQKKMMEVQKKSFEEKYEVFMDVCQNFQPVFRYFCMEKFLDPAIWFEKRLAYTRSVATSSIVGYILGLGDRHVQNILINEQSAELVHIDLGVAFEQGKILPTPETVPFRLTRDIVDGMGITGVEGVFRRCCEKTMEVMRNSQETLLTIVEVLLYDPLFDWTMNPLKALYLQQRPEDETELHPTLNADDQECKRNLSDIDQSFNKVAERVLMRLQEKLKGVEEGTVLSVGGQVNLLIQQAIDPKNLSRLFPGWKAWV
Description: ATM enzyme activity test (HTRF, phosphorylation of GST-cMyc-p53). Format: biochemical. The protocol: as §1
as §2, with “ATM” for “DNA-PK”, “30” for “50”

A word on the IC50: it is the concentration that gives 50% inhibition. Low readings indicate greater potency in that assay, high ones weaker potency in that assay.

On to `CC(C)N1CCC2(CC1)C(=O)N(C)c1cnc3ccc(-c4ccc(OCCCN5CCCCC5)nc4)cc3c12` [Example 16], for which the IC50 in assay [1] is 204 nM; against Human-derived ATM kinase, 4 nM.
As for `CC(=O)N1CCC2(CC1)C(=O)N(C)c1cnc3ccc(-c4ccc(OCCCN(C)C)nc4)cc3c12` [Example 17], the figures for the IC50 (in assay [1]; against Human-derived ATM kinase) were 352 nM and 3 nM, respectively.
Turning to `CN1C(=O)C2(CCOCC2)c2c1cnc1ccc(-c3ccc(OCCCN4CC[C@H](F)C4)nc3)cc21` [Example 3], the IC50 in assay [1] worked out at 48 nM; at Human-derived ATM kinase, 1 nM.
As for `CN1C(=O)C2(CCC(C)(O)CC2)c2c1cnc1ccc(-c3ccc(OCCCN4CCCCC4)nc3)cc21` (stereo not shown) [Example 28], the figures for the IC50 (in assay [1]; on Human-derived ATM kinase) were 334 nM and 2 nM, respectively.
In the same order, the values of `CN1C(=O)C2(CCOCC2)c2c1cnc1ccc(-c3ccc(OCCCN(C4CC4)C4CC4)nc3)cc21` [Example 6] are 800 nM and 2 nM.
For the molecule `CN(C)CCCOc1ccc(-c2ccc3ncc4c(c3c2)C2(CCN(C3CC3)CC2)C(=O)N4C)cn1` [Example 22], the IC50 in assay [1] was 14 nM; at Human-derived ATM kinase it was 1 nM.
In the same order, the values of `CN(C)CCCOc1ccc(-c2ccc3ncc4c(c3c2)C2(CCN(CC(F)F)CC2)C(=O)N4C)cn1` [Example 12] are 26 nM and 2 nM.
For the molecule `CN1C(=O)C2(CCN(C3CC3)CC2)c2c1cnc1ccc(-c3ccc(OCCCN4CCCCC4)nc3)cc21` [Example 23], the IC50 in assay [1] was found to be 30 nM; against Human-derived ATM kinase, 0.8 nM.
In the same order, the values of `CN(C)CCCOc1ccc(-c2ccc3ncc4c(c3c2)C2(CCOCC2)C(=O)N4C2CC2)cn1` [Example 29] are 269 nM and 2 nM.
As for `CN1C(=O)C2(CCOCC2)c2c1cnc1ccc(-c3ccc(OCCCN4CCC(F)CC4)nc3)cc21` [Example 5], the IC50 in assay [1] amounted to 92 nM; against Human-derived ATM kinase it was 2 nM.
`CN(C)CCCOc1ccc(-c2ccc3ncc4c(c3c2)C2(CCOCC2)C(=O)N4C)cn1` [Example 1]: the IC50 in assay [1] was determined as 78 nM; against Human-derived ATM kinase, 0.9 nM.
Consider `COC(=O)N1CCC2(CC1)C(=O)N(C)c1cnc3ccc(-c4ccc(OCCCN5CCCCC5)nc4)cc3c12` [Example 20], for which the IC50 in assay [1] was 129 nM; against Human-derived ATM kinase, 2 nM.
Regarding `CN(C)CCCOc1ccc(-c2cc3c4c(cnc3cc2F)N(C)C(=O)C42CCOCC2)cn1` [Example 33], the IC50 turned out to be 593 nM in assay [1] and 1 nM against Human-derived ATM kinase.
Regarding `CN(C)CCCOc1ccc(-c2ccc3ncc4c(c3c2)C2(CCC(O)CC2)C(=O)N4C)cn1` (stereo not shown) [Example 26], the IC50 in assay [1] amounted to 76 nM; on Human-derived ATM kinase, 1 nM.
For `COC1CCC2(CC1)C(=O)N(C)c1cnc3ccc(-c4ccc(OCCCN(C)C)nc4)cc3c12` (stereo not shown) [Example 25], the IC50 stood at 92 nM in assay [1] and 1 nM against Human-derived ATM kinase.
For `CN(C)CCCOc1ccc(-c2ccc3ncc4c(c3c2)C2(CCN(CC(F)(F)F)CC2)C(=O)N4C)cn1` [Example 13], the results for the IC50 (in assay [1]; against Human-derived ATM kinase) were 27 nM and 4 nM, respectively.
For the molecule `CCN1CCC2(CC1)C(=O)N(C)c1cnc3ccc(-c4ccc(OCCCN(C)C)nc4)cc3c12` [Example 10], the IC50 in assay [1] was 80 nM; against Human-derived ATM kinase, 2 nM.
In the case of `CN(C)CCCOc1ccc(-c2ccc3ncc4c(c3c2)C2(CCC(F)(F)CC2)C(=O)N4C)cn1` [Example 7], the IC50 in assay [1] is 153 nM; on Human-derived ATM kinase it was 1 nM.
In the same order, the values of `CN1C(=O)C2(CCN(CC(F)(F)F)CC2)c2c1cnc1ccc(-c3ccc(OCCCN4CCCCC4)nc3)cc21` [Example 14] are 46 nM and 3 nM.
On to `CN(C)CCCOc1ccc(-c2ccc3ncc4c(c3c2)C2(CCNCC2)C(=O)N4C)cn1` [Example 8], for which the figures for the IC50 (in assay [1]; against Human-derived ATM kinase) were 99 nM and 3 nM, respectively.
Take `O=C1N(C2CC2)c2cnc3ccc(-c4ccc(OCCCN5CCCCC5)nc4)cc3c2C12CCOCC2` [Example 30]: the figures for the IC50 (in assay [1]; against Human-derived ATM kinase) were 475 nM and 2 nM, respectively.
In the same order, the values of `CN(C)CCCOc1ccc(-c2ccc3ncc4c(c3c2)C2(CCC(C)(O)CC2)C(=O)N4C)cn1` (stereo not shown) [Example 27] are 99 nM and 1 nM.
In the same order, the values of `CCN1CCC2(CC1)C(=O)N(C)c1cnc3ccc(-c4ccc(OCCCN5CCCCC5)nc4)cc3c12` [Example 11] are 243 nM and 2 nM.
In the case of `CN1C(=O)C2(CCOCC2)c2c1cnc1ccc(-c3ccc(OCCCN4CC[C@@H](F)C4)nc3)cc21` [Example 4], the results for the IC50 (in assay [1]; against Human-derived ATM kinase) were 62 nM and 1 nM, respectively.
Consider `COC(=O)N1CCC2(CC1)C(=O)N(C)c1cnc3ccc(-c4ccc(OCCCN(C)C)nc4)cc3c12` [Example 19], for which the IC50 came to 77 nM in assay [1] and 0.8 nM against Human-derived ATM kinase.
Consider `CN1C(=O)C2(CCOCC2)c2c1cnc1ccc(-c3cnn(C)c3)cc21` [Example 2], for which the IC50 in assay [1] stood at 73 nM; at Human-derived ATM kinase, 288 nM.
For `O=C1N(C2CC2)c2cnc3cc(F)c(-c4ccc(OCCCN5CCCCC5)nc4)cc3c2C12CCOCC2` [Example 35], the IC50 was over 1000 nM in assay [1] and 3 nM against Human-derived ATM kinase.
In the same order, the values of `CN(C)CCCOc1ccc(-c2cc3c4c(cnc3cc2Cl)N(C)C(=O)C42CCOCC2)cn1` [Example 36] are over 1000 nM and 12 nM.
In the same order, the values of `CN1C(=O)C2(CCOCC2)c2c1cnc1ccc(-c3ccc(OCCCN4CCCCC4)nc3)cc21` [Example 24] are 80 nM and 2 nM.
In the same order, the values of `COCc1ccc(-c2ccc3ncc4c(c3c2)C2(CCOCC2)C(=O)N4C)cn1` [Example 31] are 88 nM and 63 nM.
For the molecule `CN(C)CCCOc1ccc(-c2ccc3ncc4c(c3c2)C2(CCN(C)CC2)C(=O)N4C)cn1` [Example 9], the values for the IC50 (in assay [1]; at Human-derived ATM kinase) were 83 nM and 1 nM, respectively.
With `CC(C)N1CCC2(CC1)C(=O)N(C)c1cnc3ccc(-c4ccc(OCCCN(C)C)nc4)cc3c12` [Example 15], the IC50 is 41 nM in assay [1] and 2 nM against Human-derived ATM kinase.
Regarding `CN(C)CCCOc1ccc(-c2ccc3ncc4c(c3c2)C2(CCN(C(=O)C3CC3)CC2)C(=O)N4C)cn1` [Example 18], the IC50 in assay [1] worked out at 343 nM; against Human-derived ATM kinase, 2 nM.
Turning to `CN(C)CCCOc1ccc(-c2cc3c4c(cnc3cc2F)N(C2CC2)C(=O)C42CCOCC2)cn1` [Example 34], the IC50 is over 1000 nM in assay [1] and 5 nM against Human-derived ATM kinase.
As to `CC(C)OC(=O)N1CCC2(CC1)C(=O)N(C)c1cnc3ccc(-c4ccc(OCCCN(C)C)nc4)cc3c12` [Example 21], the IC50 in assay [1] was found to be 509 nM; against Human-derived ATM kinase, 7 nM.
